Test results as given in patent US10674723B2, “1,8-bis(Schiff base)-p-menthane derivatives as well as preparation method and applications thereof” (INSTITUTE OF CHEMICAL INDUSTRY OF FOREST PRODUCTS, CAF, priority 2016, dated 2020).

System: annual ryegrass
Assay: Pre-emergence herbicidal activity by the Petri dish seed germination method
Assay type: in vivo
Settings: 25° C., 5 days
Procedure: Step 2: accurately weigh 1 mmol of the 1,8-bis(Schiff base)-p-menthane derivative and dissolve it in 0.25 mL DMF, and then add a drop of Tween 80 into it; after the product is fully dissolved, the resulting solution is transferred to a 100 mL volumetric flask and is diluted with distilled water to the mark to obtain a solution having a concentration of 10 mmol/L as the mother liquor. Using the two-fold dilution method, a series of diluted sample solutions with different concentrations are prepared with the mother liquor (the concentrations of DMF and Tween 80 in the diluted solutions should be consistent with those in the mother liquor).
The annual ryegrass seeds are soaked with distilled water for 15 h. Place a piece of filter paper on the bottom of a Petri dish (φ9 cm), add 10 mL of the above sample solution having the corresponding concentration into it, respectively, and add the same amount of the mixture of water, DMF and Tween 80 into such a Petri dish as a blank control. Place 10 grains of seeds into each dish. The dishes are then placed in an incubator and cultured at 25° C. for 5 days. The experimental data are analyzed with DPS software, and the inhibition rate of the 1,8-bis(Schiff base)-p-menthane derivative on the root or stem growth of ryegrass seeds is calculated as follows:
[formula] Where: y is the inhibition rate on the root or stem growth, x2 is the root length or stem length of the control sample, and x1 is the root length or stem length of the sample.
1 mmol of the 1,8-bis(2-hydroxyphenylimine)-p-menthane was accurately weighed and dissolved in 0.25 mL DMF; a drop of Tween 80 was then added into it; after the product was fully dissolved, the resulting solution was transferred to a 100 mL volumetric flask and was diluted with distilled water to the mark to obtain a solution having a concentration of 10 mmol/L as the mother liquor. Using the two-fold dilution method, a series of diluted sample solutions with different concentrations (5 mmol/L, 2.5 mmol/L, 1.25 mmol/L, 0.625 mmol/L and 0.3125 mmol/L; the concentrations of DMF and Tween 80 in the diluted solutions should be consistent with those in the mother liquor) were prepared with the mother liquor.
The annual ryegrass seeds were soaked with distilled water for 15 h. Placed a piece of filter paper on the bottom of a Petri dish (φ 9 cm), added 10 mL of the above sample solution having the corresponding concentration into it, respectively, and added the same amount of the mixture of water, DMF and Tween 80 into such a Petri dish as a blank control. 10 grains of seeds were placed into each of the dishes. The dishes were then placed in an incubator and cultured at 25° C. for 5 days.

Molecule	inhibition rate on the root growth of ryegrass seeds (0.3125 mmol/L solution)	inhibition rate on the stem growth of ryegrass seeds (0.3125 mmol/L solution)	inhibition rate on the root growth of ryegrass seeds (0.625 mmol/L solution)	inhibition rate on the stem growth of ryegrass seeds (0.625 mmol/L solution)	inhibition rate on the root growth of ryegrass seeds (1.25 mmol/L solution)	inhibition rate on the stem growth of ryegrass seeds (1.25 mmol/L solution)	inhibition rate on the root growth of ryegrass seeds (2.5 mmol/L solution)	inhibition rate on the stem growth of ryegrass seeds (2.5 mmol/L solution)	inhibition rate on the root growth of ryegrass seeds (5 mmol/L solution)	inhibition rate on the stem growth of ryegrass seeds (5 mmol/L solution)	inhibition rate on the root growth of ryegrass seeds (10 mmol/L solution)	inhibition rate on the stem growth of ryegrass seeds (10 mmol/L solution)
1,8-bis(2-hydroxyphenylimine)-p-menthane	14.3%	6.9%	41.4%	38.0%	62.2%	61.7%	83.3%	79.5%	100.0%	100.0%	100.0%	100.0%
1,8-bis(2-trifluoromethylphenylimine)-p-menthane	79.2%	56.3%	86.2%	56.3%	99.7%	88.2%	100.0%	100.0%	100.0%	100.0%	100.0%	100.0%
1,8-bis(4-bromophenylimine)-p-menthane	71.0%	64.8%	88.0%	79.5%	100.0%	100.0%	100.0%	100.0%	100.0%	100.0%	100.0%	100.0%
1,8-bis(4-chlorophenylimine)-p-menthane	94.1%	75.2%	98.0%	90.3%	99.3%	91.4%	100.0%	98.2%	100.0%	100.0%	100.0%	100.0%
1,8-bis(4-fluorophenylimine)-p-menthane	14.0%	4.5%	35.0%	21.6%	58.0%	49.9%	78.0%	53.8%	85.5%	82.5%	94.9%	94.9%
1,8-bis(4-methoxyphenylimine)-p-menthane	12.5%	30.6%	15.5%	32.2%	54.3%	48.2%	88.3%	73.9%	100.0%	100.0%	100.0%	100.0%
1,8-bis(4-methylphenylimine)-p-menthane	20.3%	11.1%	26.3%	25.9%	34.2%	26.8%	67.0%	46.2%	92.8%	90.4%	100.0%	100.0%
1,8-bis(p-dimethylaminophenylimine)-p-menthane	100.0%	96.8%	100.0%	100.0%	100.0%	100.0%	100.0%	100.0%	100.0%	100.0%	100.0%	100.0%
1,8-bis(p-methylthiophenylimine)-p-menthane	37.7%	20.8%	46.4%	28.7%	35.4%	27.1%	54.8%	28.0%	50.3%	21.9%	67.8%	36.7%
1,8-bis(p-trifluoromethylphenylimine)-p-menthane	35.4%	1.1%	45.5%	2.4%	65.8%	26.0%	87.5%	53.7%	81.7%	34.8%	93.8%	87.9%
CC1(N=Cc2c(Cl)cccc2Cl)CCC(C(C)(C)N=Cc2c(Cl)cccc2Cl)CC1 (stereo not drawn) [1,8-bis(2,6-dichlorophenylimine)-p-menthane]	100.0%	100.0%	100.0%	100.0%	100.0%	100.0%	100.0%	100.0%	100.0%	100.0%	100.0%	100.0%
